The values that follow come from US8604042B2, “Bi-aryl meta-pyrimidine inhibitors of kinases” (TargeGen, Inc., priority 2005, dated 2013).

Each structure is given as a SMILES string. Structures can show the parent of a compound that is named as a salt. Where two headings read alike, the source gives them in different places. A value given as a limit tells only on which side of the number the result lay.

A short description of data set [1]: Ocular exposure after eye drop administration. The data set is classed as in vivo. As to conditions: mouse, bilateral topical instillation of 0.1% formulation QDX1. The protocol:
Exposure data of compounds at 0.1% via eye drop administration:
On topical dosing of compounds formulated as 0.1% doses in 0.2% tyloxapol/1% HPMC/4% Mannitol, exposure levels in found in back of the eye tissues of the mouse are shown at two different time points, namely at 2 h and at 7 h.

In data set [2] the target is T1, Ba/F3 T674I (FIP1L1-PDFRA-T674I) (Homo sapiens, UniProt P16234, T674I, cells depend on it).
T1 construct: fused on or other part: Q6UN15 (Pre-mRNA 3'-end-processing factor FIP1)
T1 sequence (P16234 whole entry T674I, the tested form may be a part): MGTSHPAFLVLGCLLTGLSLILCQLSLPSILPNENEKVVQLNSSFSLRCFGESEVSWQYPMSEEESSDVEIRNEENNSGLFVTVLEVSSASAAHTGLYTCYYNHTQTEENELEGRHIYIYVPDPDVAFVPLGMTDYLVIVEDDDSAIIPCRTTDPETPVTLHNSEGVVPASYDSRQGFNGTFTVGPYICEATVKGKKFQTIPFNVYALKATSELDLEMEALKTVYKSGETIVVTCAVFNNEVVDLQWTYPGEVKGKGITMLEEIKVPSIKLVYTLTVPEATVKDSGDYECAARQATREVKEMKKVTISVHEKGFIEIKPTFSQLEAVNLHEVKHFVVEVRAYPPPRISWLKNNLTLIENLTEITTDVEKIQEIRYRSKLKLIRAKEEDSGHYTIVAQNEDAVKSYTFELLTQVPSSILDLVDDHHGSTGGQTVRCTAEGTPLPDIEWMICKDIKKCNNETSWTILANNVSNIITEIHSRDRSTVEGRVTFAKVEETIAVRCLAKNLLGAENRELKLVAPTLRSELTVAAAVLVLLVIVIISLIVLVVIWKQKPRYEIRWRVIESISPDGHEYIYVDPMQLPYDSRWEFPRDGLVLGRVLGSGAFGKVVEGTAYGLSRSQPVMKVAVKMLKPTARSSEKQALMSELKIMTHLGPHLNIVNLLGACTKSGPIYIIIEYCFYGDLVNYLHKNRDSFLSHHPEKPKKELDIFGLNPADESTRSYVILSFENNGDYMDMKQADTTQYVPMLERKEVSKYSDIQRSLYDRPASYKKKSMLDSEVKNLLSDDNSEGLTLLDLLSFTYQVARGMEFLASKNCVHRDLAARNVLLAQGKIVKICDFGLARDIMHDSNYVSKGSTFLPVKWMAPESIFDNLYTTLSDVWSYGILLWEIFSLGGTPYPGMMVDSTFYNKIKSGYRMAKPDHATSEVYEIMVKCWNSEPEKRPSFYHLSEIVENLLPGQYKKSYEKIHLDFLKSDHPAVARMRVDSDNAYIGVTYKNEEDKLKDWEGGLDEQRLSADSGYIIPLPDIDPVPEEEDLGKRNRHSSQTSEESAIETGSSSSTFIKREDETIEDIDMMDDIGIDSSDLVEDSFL
Description: XTT cell proliferation assay, Ba/F3 T674I. The settings on record: for GI50: XTT assay, read-out: Cellular IC50 Ba/F3 T674I. In kind it is cell-based. For orientation: Formazan colour is commonly taken as a measure of viable cells.

Data set [3] relates to EOL-1, a chronic eosinophilic leukemia (CEL) derived line (FIP1L1-PDFRA-positive). Description: XTT cell proliferation assay, EOL-1. The settings on record: for IC50: Homo sapiens, EOL1, XTT assay, read-out: Cellular IC50 EOL-1. The data set is classed as cell-based.
For data set [4], the system named is HMC-1, a mast cell leukemia line (KITD816V-positive). Description: XTT cell proliferation assay, HMC-1. In kind it is cell-based. The settings on record: for IC50: Homo sapiens.
A further data set has as its system HEL cells. Description: XTT cell proliferation assay, HEL cells. In kind it is cell-based. The settings on record: Homo sapiens, XTT assay, Table 19, read-out: Cellular IC50 HEL.
Data set [5] is described as follows: Ocular exposure after eye drop administration. The settings on record: mouse. In kind it is in vivo.
The target of a further data set is T2, recombinant JAK2 (Homo sapiens, UniProt O60674).
T2 construct: purchased Upstate Cell Signaling Solutions
T2 sequence (O60674 808-1132 limits assumed): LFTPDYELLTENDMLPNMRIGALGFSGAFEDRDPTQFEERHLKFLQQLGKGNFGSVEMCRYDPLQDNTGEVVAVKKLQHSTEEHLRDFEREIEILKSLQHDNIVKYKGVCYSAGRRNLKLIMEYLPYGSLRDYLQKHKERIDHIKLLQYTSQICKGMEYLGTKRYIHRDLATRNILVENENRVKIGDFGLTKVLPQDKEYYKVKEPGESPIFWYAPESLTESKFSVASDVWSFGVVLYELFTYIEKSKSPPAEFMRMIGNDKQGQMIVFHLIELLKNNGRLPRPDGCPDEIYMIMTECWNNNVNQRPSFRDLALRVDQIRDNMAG
Description: IC50 value determinations for Jak2 kinase, luminescence-based kinase assay (Kinase-Glo). The settings on record: Table 1. The data set is classed as biochemical. A general note: Kinase-Glo measures the ATP left after a reaction by luminescence.

Setting [6] is: cornea, read-out: Concentration (nM) Cornea.
The mark [7] stands for this setting: retina, read-out: Concentration (nM) retina.
[8] abbreviates: sclera/choroid, read-out: Concentration (nM) Sclera/choroid.
[9] abbreviates: HMC1, XTT assay, read-out: Cellular IC50 HMC-1.

On to `Cc1cnc(Nc2ccc(N3CCN(C)CC3)cc2)nc1Nc1ccc(Cl)c2[nH]ccc12` [Compound LXXIV, N^4-(7-Chloro-1H-indol-4-yl)-5-methyl-N^2-(4-(4-methylpiperazin-1-yl)phenyl)pyrimidine-2,4-diamine], for which the concentration at 2 h stood at 45000 nM in data set [1] (setting [6]), 2120 nM in data set [1] (setting [7]) and 6090 nM in data set [1] (setting [8]). Moreover, the concentration at 7 h in data set [1] (setting [6]) was found to be 21000 nM; in data set [1] (setting [7]), 2150 nM; in data set [1] (setting [8]), 7350 nM.
Take `COc1cc(Nc2nc(Nc3ccc(OC4CCNCC4)cc3)ncc2C)ccc1Cl` [Compound LXXXII, N^4-(4-Chloro-3-methoxy-phenyl)-5-methyl-N^2-[4-(piperidin-4-yloxy)-phenyl]-pyrimidine-2,4-diamine]: the values for the concentration at 2 h in data set [1] (setting [6]), in data set [1] (setting [7]) and in data set [1] (setting [8]) were 69900 nM, 267 nM and 2340 nM, respectively. For the same compound, the concentration at 7 h in data set [1] (setting [6]) was found to be 45400 nM; in data set [1] (setting [7]), 592 nM; in data set [1] (setting [8]) it was 2250 nM.
For the compound `COc1cc(Nc2nc(Nc3ccc(N4CCNCC4)cc3)ncc2C)ccc1Cl` [Compound XLIV, N^4-(4-Chloro-3-methoxy-phenyl)-5-methyl-N^2-(4-piperazin-1-yl-phenyl)-pyrimidine-2,4-diamine], the concentration at 2 h in data set [1] (setting [6]) came to 103000 nM; in data set [1] (setting [7]) it was 406 nM; in data set [1] (setting [8]), 4840 nM. The results for the concentration at 7 h in data set [1] (setting [6]), in data set [1] (setting [7]) and in data set [1] (setting [8]) were 26600 nM, 321 nM and 3180 nM, respectively.
Turning to `Cc1cnc(Nc2ccc(OCCN3CCCC3)cc2)nc1Nc1cccc2c1OCO2` [Compound XXXVI, N^4-Benzo[1,3]dioxol-4-yl-5-methyl-N^2-[4-(2-pyrrolidin-1-yl-ethoxy)-phenyl]-pyrimidine-2,4-diamine], the concentration at 2 h was determined as 7870 nM in data set [1] (setting [6]), 816 nM in data set [1] (setting [7]) and 7250 nM in data set [1] (setting [8]). The concentration at 7 h stood at 18600 nM in data set [1] (setting [6]), 11200 nM in data set [1] (setting [7]) and 34800 nM in data set [1] (setting [8]).
As usually defined, the IC50 is the concentration that gives 50% inhibition. Turning to `Cc1nc(Nc2ncc(C(=O)Nc3c(C)cccc3Cl)s2)cc(N2CCN(CCO)CC2)n1` [Dasatinib, dasatinib], in data set [2], the GI50 was 30900 nM. Further, the values for the IC50 in data set [3] and in data set [4] (setting [9]) were less than 0.001 nM and 1300 nM, respectively.
As for `Cc1ccc(NC(=O)c2ccc(CN3CCN(C)CC3)cc2)cc1Nc1nccc(-c2cccnc2)n1` [Imatinib, imatinib mesylate], the “concentrations inhibiting EOL-1 growth” value in data set [3] was “picomolar concentrations”.
As to `Cc1cnc(Nc2ccc(OCCN3CCCC3)cc2)nc1Nc1cccc(S(=O)(=O)NC(C)(C)C)c1` [LVII], the IC50 is 300 nM with HEL cells; less than 0.001 nM in data set [3]; 355 nM in data set [4] (HMC1, read-out: Cellular IC50 HMC-1 (nM)).
Regarding `CNC(=O)c1cc(Oc2ccc(NC(=O)Nc3ccc(Cl)c(C(F)(F)F)c3)cc2)ccn1` [Sorafenib], in data set [2], the “concentrations inhibiting growth of Ba/F3 cells harboring FIP1L1-PDFGRA-T674I” value was “nanomolar concentrations” and the GI50 was 16 nM. Also, in data set [3], the “concentrations inhibiting EOL-1 growth” value is “picomolar concentrations” and the IC50 was 0.002 nM. In addition, the “sensitivity of HMC-1 growth” value in data set [4] was “only a limited effect”. In addition, in data set [4] (setting [9]), the IC50 was found to be 4000 nM.
Turning to `COc1cc(Nc2nc(Nc3ccc(OCCN4CCCC4)cc3)ncc2C)ccc1Cl` [XVII], the figures for the concentration at 2 h in data set [1] (setting [6]), in data set [1] (setting [7]) and in data set [1] (setting [8]) were 8840 nM, 495 nM and 6040 nM, respectively. In addition, the concentration at 6 h in data set [5] (cornea, bilateral topical instillation of 0.1% formulation QDX1, read-out: Concentration (nM) Cornea) stood at 3780 nM; in data set [5] (retina, bilateral topical instillation of 0.1% formulation QDX1, read-out: Concentration (nM) retina), 351 nM; in data set [5] (sclera/choroid, bilateral topical instillation of 0.1% formulation QDX1, read-out: Concentration (nM) Sclera/choroid) it was 2970 nM.
Regarding `COc1cc(Nc2nc(Nc3ccc(OCCN4CCCC4)cc3)ncc2C)ccc1Cl` [drawing 311, N4-(4-Chloro-3-methoxy-phenyl)-5-methyl-N2-[4-(2-pyrrolidin-1-yl-ethoxy)-phenyl]-pyrimidine-2,4-diamine], the concentration for half-maximal inhibition (IC50) on recombinant JAK2 was found to be 7.96 nM.
For `Cc1cnc(Nc2ccc(OCCN3CCCC3)cc2)nc1Nc1cccc2c1OCO2` [drawing 333, N4-Benzo[1,3]dioxol-4-yl-5-methyl-N2-[4-(2-pyrrolidin-1-ylethoxy)-phenyl]-pyrimidine-2,4-diamine], on recombinant JAK2, the IC50 was determined as 16.9 nM.
As to `COc1cc(Nc2nc(Nc3ccc(N4CCNCC4)cc3)ncc2C)ccc1Cl` [drawing 348, N4-(4-Chloro-3-methoxy-phenyl)-5-methyl-N2-(4-piperazin-1-yl-phenyl)-pyrimidine-2,4-diamine], the IC50 at recombinant JAK2 turned out to be 6.15 nM.
Same read-out and setting: the value for `COc1cc(Nc2nc(Nc3ccc(OC4CCNCC4)cc3)ncc2C)ccc1Cl` [drawing 349, N4-(4-Chloro-3-methoxy-phenyl)-5-methyl-N2-[4-(piperidin-4-yloxy)-phenyl]-pyrimidine-2,4-diamine] was 4.14 nM.
Take `Cc1cnc(Nc2ccc(N3CCN(C)CC3)cc2)nc1Nc1ccc(Cl)c2[nH]ccc12` [drawing 356, N4-(7-chloro-1H-indol-4-yl)-5-methyl-N2-(4-(4-methylpiperazin-1-yl)phenyl)pyrimidine-2,4-diamine]: the IC50 at recombinant JAK2 worked out at 5.36 nM.
The same measure, in the same setting: the value for `Cc1cnc(Nc2ccc(N3CCN(C)CC3)cc2)nc1Nc1cc(C)c(Cl)c(C)c1` [drawing 361, N4-(4-chloro-3,5-dimethylphenyl)-5-methyl-N2-(4-(4-methylpiperazin-1-yl)phenyi)pyrimidine-2,4-diamine Hydrochloride] was 38 nM.
As for `Cc1ccc(Nc2nc(Nc3ccc(N4CCN(C)CC4)cc3)ncc2C)cc1C` [drawing 459, 5-methyl-N4-(3,4-dimeihylphenyl)-N2-(4-(4-methylpiperazin-1-yl)phenyl)pyrimidine-2,4-diamine Hydrochloride], the IC50 at recombinant JAK2 is 16.6 nM.
Consider `Cc1cn(-c2cc(NC(=O)c3ccc(C)c(Nc4nccc(-c5cccnc5)n4)c3)cc(C(F)(F)F)c2)cn1` [nilotinib], for which the “concentrations inhibiting growth of Ba/F3 cells harboring FIP1L1-PDFGRA-T674I” value in data set [2] is given as “nanomolar concentrations”.
